Laboratory results: patent US20070299084A1, “Indole Derivatives Useful for Treating Resistance to Antitumor Agents” (NIKEM RESE S.R.L., priority 2004, published 2007)

Assays:
HT29 line = test: Apoptosis experiment (Tunel); format: cell-based, human
Procedure: 1.5×10^6 cells/sample are seeded. After 24 hours the cells are treated with the compounds for 48 or 72 hours. At the end of the treatment, the cells are detached with Trypsin/EDTA, washed in PBS (phosphate buffered solution) and incubated for 45 minutes at room temperature in 1 ml of 4% paraformaldehyde.
The cells are then washed with PBS and resuspended in 100 μl of permeabilizing solution (0.1% triton in 0.1% sodium citrate) for 2 minutes in ice. After a further wash, the cells are resuspended in 50 μl of Tunel reaction mix (Boehringer Mannheim) and left at 37° C. for 1 hour in the dark. After washing in PBS, the cells are resuspended in PBS and analysed by cytofluorimeter or examined by fluorescence microscope.

[1] = system: HT29/Mit human colon carcinoma xenografts; test: HT29/Mit human colon carcinoma xenografts, antitumor activity; format: in vivo, athymic Swiss nude mice; settings: HT29/Mit xenograft, p.o.; topotecan 15 mg/Kg every 4 days for 3 administrations; compound of example 2 30 mg/kg; alone or combined
Procedure: Female athymic Swiss nude mice (8-10 weeks old) (Charles River, Calco, Italy) were used for the experiments. The animals were maintained at constant temperature and humidity, and were allowed to eat and drink freely. The experimental protocol was approved by the Ethics Committee for Animal Experimentation of the Istituto Nazionale Tumori of Milan.
The antitumour effectiveness of the compounds of the invention under discussion was tested on athymic mouse models implanted with HT29 and/or HT29/Mit tumour cells: this latter variety is highly resistant to topotecan treatment. The tumour cells were implanted in vivo via subcutaneous injection of 10^7 cells taken from in vitro cultures. Randomized groups of five mice with bilateral subcutaneous tumours were used for the experiment.
Topotecan or other known antitumour agents (dissolved in distilled water or an appropriate solvent) and the compounds of the invention (dissolved in Cremophor EL:ethanol:saline solution in the proportions 5:5:90, or in an appropriate solvent) were administered orally from the third day, alone or in combination, in agreement with a treatment scheme selected in an appropriate manner depending on the type of compound to be studied.
The weight (or volume) of the tumour in treated mice compared to controls is represented graphically on the y-axis against time (x-axis).

[2] = system: SK-N-BE(2) cells (human neuroblastoma); test: Antiproliferative activity, 48 h treatment, ATPlite luminescence assay, SK-N-BE(2); format: cell-based; settings: Homo sapiens, SKNBE2, 48 h, read-out: Antiproliferative activity (IC50 ± S.D., μM) SK-N-BE(2)
Procedure: SH-SY5Y and SK-N-BE(2): maintained in HAM-F12 medium+10% FCS.
24 hours after seeding, an aliquot (10 μl) of the drug at the various concentrations is added (for each concentration there are 3 replicates). After 48 hours of treatment the antiproliferative effect is evaluated with a luminescence assay (Perkin Elmer Life Sciences ATPlite):
50 μl of a lysis solution are added to each well followed by an equal volume of a solution containing luciferase and D-luciferin. The ATP present in all the metabolically active cells brings about the transformation reaction of D-luciferin, catalysed by luciferase, to produce a luminescent signal as described in the following scheme: ATP+D-luciferin+O2→Oxyluciferin+AMP+PPi+CO2+Light
The luminescence produced (expressed in counts per second, CPS) is measured by means of a microplate scintillation analyzer (Perkin Elmer Life Sciences Top Count).
Percentage inhibition of luminescence in the treated cells compared to the control is calculated; concentration-response curves are then analysed using Grafit v.5.0.

[3] = system: H460 cells (human lung carcinoma); test: Migration assay (Transwell chemotaxis); format: cell-based; settings: after 24 h incubation
Procedure: Human Lung Carcinoma:H460: maintained in RPMI1640 medium+10% FCS.
H460 cells were seeded in complete medium and treated with different compound concentrations for 24 h. Then, cells were harvested and transferred to 24-well Transwell chambers (Costar) in serum-free medium in the following ways:
migration assay: 1.2×10^5 cells/well were seeded in the upper chamber, and the drug was added, in the same concentrations utilized before, in both upper and lower chambers. After 4 h of incubation at 37° C., migrated cells were fixed in 95% ethanol, stained with a 2% crystal violet in 70% ethanol solution, and counted by an inverted microscope.

[4] = system: HCT116 cells (human colon carcinoma); test: Antiproliferative activity, 72 h treatment, SRB assay, HCT116; format: cell-based
Procedure: HCT116 maintained in RPMI 1640 medium+10% FCS.
The cells (HT29 and HT29/Mit:. 40,000 cells/ml, LoVo, LoVo/Dx and HCT116: 50,000 cells/ml) are seeded in 100 μl of the respective culture media in 96-well plates. 24 hours after seeding, an aliquot (10 μl) of drug at the various concentrations is added. In the samples in which the effect of the combination of two compounds is to be tested the inhibitor is added immediately before the cytotoxic. For each dose or combination of doses/drugs the effect of the treatment is determined in 4-8 replicates.
After 72 hours of treatment the antiproliferative effect is evaluated using the sulforhodamine B (SRB) assay: the cells are fixed by adding 25 μl of 50% TCA to each well and left for 1 hour at 4° C. After washing them with water and allowing them to dry, 100 μl of 0.4% SRB in 1% acetic acid are added and left for 30 minutes at room temperature. After 4 washes in 1% acetic acid, they are left to dry, then the dye fixed by the proteins is dissolved under basic conditions with 100 μl 10 mM cold Tris and the solution is read using a spectrophotometer at 550 nm.
Percentage cell growth is calculated as the optical density of treated samples compared to the optical density of controls (untreated cells).
The Combination Index (C.I.) was determined according to Kern's method, 1988 (who continued from Drewinko B, 1976) (Kern D. H., Cancer Res. 48, 117-121, 1988; Drewinko B., Cancer Biochem. Biophys. 1, 187-195, 1976) by means of the following formula: […], where SFa and SFb are the fractions of cells surviving to treatment with compound a and b, respectively; SFab is the fraction surviving to the combination of compounds a and b.

CCOc1cc(C(=O)NC2CC(C)(C)NC(C)(C)C2)ccc1-c1cc2cc(Cl)c(Cl)cc2[nH]1 [Example 2]
Induction of apoptosis (HT29 line): high level of apoptosis
Inhibition of tumour growth [1]: poorly effective
IC50 [2]: 3.7 ± 0.2 µM
inhibition at 2.2 µM ([3]; NCI-H460, 2.2 μM): 51%
inhibition at 5.7 µM ([3]; NCI-H460, 5.7 μM): 92%
Interaction with cisplatin ([4]; HCT116 line, subtoxic and subactive concentrations): significant synergistic effect
IC50 ([4]; Homo sapiens, HCT-116, 72 h, read-out: Antiproliferative activity (IC50 ± S.D., μM) HCT116): 2.4 ± 0.9 µM
